Where two headings read alike, the source gives them in different places.
Tested on: α7 integrin promoter
Assay: muscle cell-based assay: α7βgal+/− myoblasts/myotubes, LacZ reporter, β-galactosidase cleavage of FDG
Set-up: species or system mouse
Procedure, shortened: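 Primary α7βgal+/− mouse myoblasts (LacZ knocked into α7 integrin exon 1, promoter retained), differentiated; promoter activity read as β-galactosidase conversion of non-fluorescent FDG to fluorescein. Hits followed by dose-response, western analysis and myostatin counterscreen.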

| Compound | Results in a α7+/− β-galactosidase assay, Myotubes, 0.5 uM (Myotubes, compound at 0.5 uM) | Results in a α7+/− β-galactosidase assay, Myotubes, 1 uM (Myotubes, compound at 1 uM) | Results in a α7+/− β-galactosidase assay, Myotubes, 5 uM (Myotubes, compound at 5 uM) | Results in a α7+/− β-galactosidase assay, Myotubes, 10 uM (Myotubes, compound at 10 uM) | Results in a α7+/− β-galactosidase assay, Myotubes, 20 uM (Myotubes, compound at 20 uM) | Results in a α7+/− β-galactosidase assay, Myotubes, 40 uM (Myotubes, compound at 40 uM) | Results in a α7+/− β-galactosidase assay, Myotubes, 0.5 uM | Results in a α7+/− β-galactosidase assay, Myotubes, 1 uM | Results in a α7+/− β-galactosidase assay, Myotubes, 5 uM | Results in a α7+/− β-galactosidase assay, Myotubes, 10 uM | Results in a α7+/− β-galactosidase assay, Myotubes, 20 uM | Results in a α7+/− β-galactosidase assay, Myotubes, 40 uM |
| --- | --- | --- | --- | --- | --- | --- | --- | --- | --- | --- | --- | --- |
| Cc1noc(C)c1COc1ccc(C(=O)NCCc2ccccn2)cc1 [drawing 386] | 0.08027 | 0.1153 | −0.04323 | 0.2279 | −0.2443 | −0.1582 | – | – | – | – | – | – |
| COCCSc1ccccc1C(=O)Nc1cc(C)cc(C)c1 [drawing 387] | −0.1267 | 0.09331 | −0.1086 | 0.1203 | −0.2283 | −0.2601 | – | – | – | – | – | – |
| CC(=O)Nc1ccc(NC(=O)c2cc(=O)c3cc(C)cc(C)c3o2)cc1 [drawing 388] | −0.05012 | −0.03106 | −0.1165 | 0.3265 | −0.3385 | −0.2657 | – | – | – | – | – | – |
| COc1ccc(-c2c[nH]nc2-c2ccc(OC)cc2)cc1 [drawing 389] | – | – | – | – | – | – | −0.01143 | 0.1883 | 0.3888 | 0.8585 | 0.03803 | −0.2518 |
| Cc1cccc(Sc2nc(-c3ccccc3)ccc2C#N)c1 [drawing 390] | −0.06701 | −0.1813 | 0.02472 | 0.2322 | −0.3206 | −0.2803 | – | – | – | – | – | – |
| CCC(C)NC(=O)CSc1nnc(COc2ccc(Br)cc2)o1 (stereo not drawn) [drawing 391] | −0.04347 | −0.169 | −0.2461 | −0.2857 | −0.2196 | −0.2848 | – | – | – | – | – | – |
| Cc1ccc(N2C(=O)C3NN=C(C(=O)OCc4ccccc4)C3C2=O)cc1 (stereo not drawn) [drawing 392] | −0.03749 | −0.0238 | −0.168 | −0.2332 | 0.00778 | −0.01262 | – | – | – | – | – | – |
| Cc1cc([N+](=O)[O-])ccc1NC(=O)C(C)N1CCN(c2ccccn2)CC1 (stereo not drawn) [drawing 393] | 0.0774 | 0.107 | −0.1042 | −0.1154 | −0.297 | −0.3729 | – | – | – | – | – | – |
| CCc1nc(/C=C2\C(=O)Nc3ccccc32)c[nH]1 [drawing 394] | 0.2902 | 0.2582 | −0.08702 | −0.09062 | −0.0001 | −0.1577 | – | – | – | – | – | – |
| O=C(Cn1nc(-c2ccc(Cl)cc2)ccc1=O)N1CCC2(CC1)OCCO2 [drawing 395] | – | – | – | – | – | – | 0.1803 | 0.1627 | −0.1502 | −0.1782 | −0.08792 | −0.2213 |
| CCOC(=O)C1(Cc2cccc(Cl)c2)CCCN(C(=O)CCSC)C1 (stereo not drawn) [drawing 396] | −0.05788 | 0.02732 | −0.3174 | −0.211 | −0.1814 | −0.4242 | – | – | – | – | – | – |
| Cc1cccc2c(/N=N/c3ccc(S(=O)(=O)Nc4ccc(Cl)cc4)cc3[N+](=O)[O-])c(O)[nH]c12 [drawing 397] | −0.03979 | −0.05535 | −0.02922 | 0.02994 | −0.2047 | −0.2727 | – | – | – | – | – | – |
| CC(C)c1ccc(OC(=O)c2cccc(S(=O)(=O)N3CCN(C)CC3)c2)cc1 [drawing 398] | −0.02436 | 0.01638 | −0.2473 | 0.3054 | −0.1863 | −0.2246 | – | – | – | – | – | – |
| CC(C)c1ccc(NC(=O)CN2C(=O)c3ccccc3S2(=O)=O)cc1 [drawing 399] | −0.1815 | −0.0433 | 0.02954 | −0.2491 | −0.1353 | −0.1392 | – | – | – | – | – | – |
| NC(=O)c1sc2nc3c(cc2c1N)CCC3 [drawing 400] | −0.1099 | −0.1307 | −0.1528 | 0.5381 | 0.07998 | 0.08496 | – | – | – | – | – | – |
| O=C(Nc1ccccc1OC(=O)c1ccc(Cl)cc1)c1ccc(Cl)cc1 [drawing 401] | −0.03464 | 0.02857 | −0.09525 | −0.1056 | −0.1495 | −0.3841 | – | – | – | – | – | – |
| CC(NC(=O)c1ccc(C(C)(C)C)cc1)C(c1cccs1)N1CCOCC1 (stereo not drawn) [drawing 402] | 0.08612 | 0.07635 | 0.06551 | 0.1287 | −0.144 | −0.1386 | – | – | – | – | – | – |
| CCC(=O)c1ccc(OCC(O)CN2CCOC(C)C2)cc1.O=C(O)C(=O)O (stereo not drawn) [drawing 403] | 0.08149 | 0.03201 | −0.09666 | −0.1187 | 0.08332 | 0.1461 | – | – | – | – | – | – |
| CC1CCN(C(CNS(=O)(=O)c2ccccc2)c2ccccc2)CC1 (stereo not drawn) [drawing 404] | 0.1307 | 0.1946 | −0.1201 | −0.1176 | −0.1296 | −0.1429 | – | – | – | – | – | – |
| COC(=O)c1ccc(/N=N/c2ccccc2)cc1 [drawing 405] | −0.111 | 0.1978 | −0.1462 | −0.2093 | −0.1861 | −0.2357 | – | – | – | – | – | – |
| CN(CCC1CCCCO1)C(=O)CCc1nnc(CCCCc2ccccc2)o1 (stereo not drawn) [drawing 407] | 0.03419 | 0.03033 | −0.2337 | −0.1125 | −0.1283 | −0.1202 | – | – | – | – | – | – |
| c1ccc(-c2nn[nH]n2)nc1 [drawing 408] | −0.05084 | −0.03177 | −0.024 | −0.07161 | 0.03157 | 0.04635 | – | – | – | – | – | – |
| O=C(N/N=C/c1c[nH]c2ccccc12)c1cc(Cl)ccc1O [drawing 409] | −0.05672 | −0.09286 | 0.2441 | −0.1364 | 0.01214 | −0.2587 | – | – | – | – | – | – |
| O=C(O)C(Cc1ccc(O)cc1)N1C(=O)c2ccccc2C1=O (stereo not drawn) [drawing 411] | 0.0905 | 0.1588 | 0.2927 | −0.09211 | 0.2266 | 0.06733 | – | – | – | – | – | – |
| CCN(CC)C(=O)c1sc2nc(-c3ccc(OC)cc3)cn2c1C [drawing 412] | 0.08584 | 0.05066 | 0.1198 | −0.03387 | −0.01472 | −0.1357 | – | – | – | – | – | – |

— US10028992B2, “Methods of treating muscular dystrophy” (BOARD OF REGENTS OF THE NEVADA SYSTEM OF HIGHER EDUCATION …, priority 2012, dated 2018)
